# Test results from US6020316A, “Glutaraldehyde modified chemotherapeutic agents and methods of use thereof” (priority 1998, dated 2000).
# How the values were obtained:
# [1] = test system: MCF-7 (breast adenocarcinoma); test: Clonogenic survival of human breast adenocarcinoma cells; assay type: cell-based; conditions: FIG. 3B
# Description: (§1) The murine L929 cell line, a human breast adenocarcinoma cell line (MCF-7) and a human bladder transitional cell carcinoma cell line (RT-4) were used to test the compounds of the present invention. All cell lines were obtained from MA Bioproducts (Bethesda, Md.) and were routinely maintained in high-glucose Dulbecco's Modified Eagle's Minimum Essential Medium (DMEM) and 10% newborn calf serum (L929) or 10% fetal calf serum (MCF-7 and RT-4). A DOX-resistant cell line, L929/DOX, was prepared by treating the L929 cell line with gradually increasing concentrations of DOX in vitro until a cell line that grew at a concentration of 50 μg/ml DOX was attained. A resistant subclone was then treated once with 100 μg/ml of DOX. The surviving resistant population was used in subsequent experiments. The L929/DOX cells were maintained in DMEM medium supplemented with 10% fetal calf serum and lacking DOX.
# (§2) Cells from the stock cultures were plated in 35 mm plastic tissue culture dishes at a density of 1×10^5 /cm^2. After 1 to 2 days, when the monolayer had reached a final density of 2-3×10^5 /cm^2, the cultures were washed twice with Dulbecco's phosphate-buffered saline and 2 ml of serum-free DMEM was added. […] Plates were examined after staining with methylene blue, and clones containing more than 10 cells were counted. […]
# [2] = test system: HTB (bladder transitional cell carcinoma); test: Clonogenic survival of human bladder transitional cell carcinoma cells; assay type: cell-based; conditions: FIG. 3A
# Description: as §1, §2
# HLC (lung carcinoma) = test: Clonogenic survival of human lung carcinoma cells; assay type: cell-based; conditions: FIG. 3C
# Description: (§3) Cells from the stock cultures were plated in 35 mm plastic tissue culture dishes at a density of 1×10^5 /cm^2. After 1 to 2 days, when the monolayer had reached a final density of 2-3×10^5 /cm^2, the cultures were washed twice with Dulbecco's phosphate-buffered saline and 2 ml of serum-free DMEM was added. […] After incubation for 3 hours at 37° C. in 10% CO2, the dishes were rinsed twice with phosphate-buffered saline (pH 7.4) to remove extracellular drugs, trypsinized, and plated for determination of clonogenic survival. Trypsinization involved dispersal of cells with 0.25% trypsin, followed by culture in DMEM plus 10% newborn calf serum for 7 days. Plates were examined after staining with methylene blue, and clones containing more than 10 cells were counted. The surviving fraction was the ratio of the plating efficiency of the cultures exposed to DOX divided by the plating efficiency of control cultures maintained in a medium of the same composition. Plating efficiency is defined as the number of colonies formed divided by the number of cells plated.
# L929 cells = test: Fluorescence uptake and localization of DOX and GLU-DOX in L929 cells; assay type: cell-based, murine
# Description: Cells were grown on 25 mm diameter microscope cover slips (Thomas, Sweedsboro, N.J.) in 35 mm tissue culture dishes. […] The wells were then rinsed two times with phosphate buffered saline and changed to fresh medium. After incubation for 0 h or 2 h, the cover slips were extracted from the plates, rinsed with PBS, mounted in an Attofluor cell chamber (Molecular Probes, Inc. Eugene, Oreg.), and examined by epifluorescence using a Zeiss microscope equipped with a 63× immersion oil objective. The combination of G546 excitation filer, FT580 dichroic mirror, and LP590 emission filter allowed efficient detection of doxorubicin fluorescence at 590 nm. The fluorescence was detected by a CCD72S camera (Dage-MTI, Inc, Michigan City, Ind.) and images were acquired and analyzed using OPTIMAS software (Optimas Corp., Seattle, Wash.). […] Area (A) per fluorescent image, i.e., per cell, and mean gray per image (MI) were measured for at least 20 cells. Mean gray for a background area containing no cell images (MB) was also determined. Fluorescence units (F.U.) per cell were calculated as: [formula]
# L929/DOX cells = test: Drug efflux from L929/DOX cells versus wild type cells; assay type: cell-based, murine
# Source text: The surviving resistant population was used in subsequent experiments.
# tumor cell = test: Antitumor cell activity of DOX modified with other aldehydes and crosslinking agents; assay type: cell-based; conditions: substituted for glutaraldehyde in the basic modification protocol
# Description: Other aldehydes and crosslinking agents that were substituted for glutaraldehyde in the basic modification protocol included acetaldehyde, butyraldehyde, hexanal, formaldehyde, succinyl chloride, glutaryl dichloride (all from Aldrich Chemical Co., Milwaukee, Wis.), DSG (disuccinimidyl glutarate), DMS (dimethylsuberimidate), and BS^3 (last three compounds from Pierce Chemical Co., Rockford, Ill.).
# as §3
molecule,measurement,setting,value
"COc1cccc2c1C(=O)c1c(O)c3c(c(O)c1C2=O)C[C@@](O)(C(=O)CO)C[C@@H]3O[C@H]1C[C@H](N)[C@H](O)[C@H](C)O1 [DOX, doxorubicin]",sensitivity to DOX,[1],relatively insensitive
same,sensitivity to DOX,[2],relatively insensitive
same,sensitivity to DOX,HLC (lung carcinoma),relatively insensitive
same,Uptake: Mean Fluorescence Units per Cell,"L929 cells; 5 μg/ml, 3 h at 37° C.",124 ± 29 Fluorescence Units per Cell
same,Uptake: Mean Fluorescence Units per Cell,"L929 cells; 5 μg/ml, 3 h at 37° C. + 2 h chase",18 ± 6 Fluorescence Units per Cell
same,fluorescence after chase in drug-free medium,"L929 cells; 2 hr chase, FIGS. 4B, 4D",nearly all DOX was lost from the cytoplasmic compartment although some nuclear fluorescence was still detectable
same,subcellular distribution of fluorescence,"L929 cells; 3 h exposure, 5 μg/ml, FIGS. 4A, 4C",in both nucleus and cytoplasm with distinct paranuclear concentration in some cells
same,drug efflux from L929/DOX relative to wild type cells,L929/DOX cells,pumped out of the L929/DOX cells much faster than out of the wild type cells
CCCCCC=O [hexanal],antitumor cell activity of the DOX reaction product relative to DOX,tumor cell,"None of these compounds, when reacted with DOX, produced a derivative with increased antitumor cell activity relative to DOX"
COC(=O)c1ccccc1-c1c2ccc(=N)cc-2oc2cc(N)ccc12 [rhodamine 123],intracellular localization compared with rhodamine 123,"L929 cells; 2 h exposure, GLU-DOX (100:1) 5 μg/ml, rhodamine 123 10 μg/ml, FIGS. 5A, 5B",strikingly similar
O=C(Cl)CCC(=O)Cl [succinyl chloride],antitumor cell activity of the DOX reaction product relative to DOX,tumor cell,"None of these compounds, when reacted with DOX, produced a derivative with increased antitumor cell activity relative to DOX"
acetaldehyde,antitumor cell activity of the DOX reaction product relative to DOX,tumor cell,"None of these compounds, when reacted with DOX, produced a derivative with increased antitumor cell activity relative to DOX"
butyraldehyde,antitumor cell activity of the DOX reaction product relative to DOX,tumor cell,"None of these compounds, when reacted with DOX, produced a derivative with increased antitumor cell activity relative to DOX"
formaldehyde,antitumor cell activity of the DOX reaction product relative to DOX,tumor cell,"None of these compounds, when reacted with DOX, produced a derivative with increased antitumor cell activity relative to DOX"
glutaryl dichloride,antitumor cell activity of the DOX reaction product relative to DOX,tumor cell,"None of these compounds, when reacted with DOX, produced a derivative with increased antitumor cell activity relative to DOX"
